In US6960574B2, “Antagonists of RF-amide neuropeptides” (University of Florida, priority 2002, dated 2005):
Square brackets hold non-standard residues; d marks the D form. Peptide text beside a SMILES is read from it. * marks the point of attachment. ξ: configuration not given here. Dansyl = CN(C)c1cccc2c(S(=O)(=O)*)cccc12; ξL = CC(C)CC(N)C(=O)O

Test system: receptor labeled by the radioiodinated analogue of 1 (4, [125I]-YLFQPQRF-NH2); neuropeptide FF receptor
Assay: Competitive radioligand binding against 4 ([125I]Y8F-amide)
Conditions: mixture-based positional scanning; difference from averaged radioligand displacement of whole library (0); about 80 a.u. = 10-fold change in Ki
From the text: Additionally, three-dimensional (3-D) molecular models of the known smaller-size neuropeptide FF antagonists 3 and 3a were constructed and their low-energy conformations were obtained in the AMBER force-field [Weiner, et al., J. Comput. Chem. 1986, 7, […].] by molecular dynamics calculations involving simulated annealing. A semi-empirical quantum chemical method with the PM3 parameterization [Stewart, J. Comput. Chem. 1989, 10, 209-220.] was used for the final geometry optimization. […] At least one of the rings in domain B is aromatic. No similarity between 3 and 3a outside these domains were apparent; therefore, the simultaneous presence of A and B domains in the structure of neuropeptide FF (1) antagonists is critical to the invention. Apparently, structural subunits (domain C) outside domains A and B should function in a cooperative manner in directing the pharmacophores into proper geometric positions when improved binding to the cognate receptor is to be obtained, which is associated with the improvement of the desired pharmacological effect. An approach involving mixture-based synthetic combinatorial libraries and positional scanning [(a) Houghten, et al., J. Med Chem. 1999, 42, 3743-3778.] was adopted in the search for preferred structural motifs in domain C that assist in achieving this objective in this invention. To allow for the use of 3 as a reference in this process, the guadinino group (A) was incorporated as part of an L-2-amino-5-{[amino(imino)methyl]amino}pentanoyl (arginyl, R, Arg) residue and 5-dimethylamino-1-naphthalenesulphonyl (dansyl) was chosen to form B (However, it must be emphasized that both R and dansyl are replaceable with moieties that bestow A and B domain attributes described in the invention).
Upon screening for residues to replace the glutamine of 3, serine (S) was the only building block in this position that increased the displacement of 4 in the radioligand-binding assay. Therefore, motifs present in dansyl-Gly-Ser-Arg-NH2, dansyl-Gly-Gln-Arg-NH2, dansyl-Gln-Ser-Arg-NH2, and dansyl-Gln-Gln-Arg-NH2 were chosen based on their affinity to the cognate receptor for further consideration as primary templates when designing the domain C of the compounds described in the invention herein. […]

SMILES | Relative Binding Index (RBI) [a.u.]
C[C@H](NS(=O)(=O)c1cccc2c(N(C)C)cccc12)C(=O)N[C@@H](Cc1ccccc1)C(=O)N[C@@H](CCCNC(=N)N)C(N)=O [Dansyl-AFR-amide] (Dansyl-Ala-Phe-Arg-NH2) | 11
C[C@H](NS(=O)(=O)c1cccc2c(N(C)C)cccc12)C(=O)N[C@@H](Cc1c[nH]cn1)C(=O)N[C@@H](CCCNC(=N)N)C(N)=O [Dansyl-AHR-amide] (Dansyl-Ala-His-Arg-NH2) | 6
C[C@H](NS(=O)(=O)c1cccc2c(N(C)C)cccc12)C(=O)N[C@@H](CCCCN)C(=O)N[C@@H](CCCNC(=N)N)C(N)=O [Dansyl-AKR-amide] (Dansyl-Ala-Lys-Arg-NH2) | 10
C[C@H](NS(=O)(=O)c1cccc2c(N(C)C)cccc12)C(=O)N1CCC[C@H]1C(=O)N[C@@H](CCCNC(=N)N)C(N)=O [Dansyl-APR-amide] (Dansyl-Ala-Pro-Arg-NH2) | 15
C[C@H](NS(=O)(=O)c1cccc2c(N(C)C)cccc12)C(=O)N[C@@H](CCCNC(=N)N)C(=O)N[C@@H](CCCNC(=N)N)C(N)=O [Dansyl-ARR-amide] (Dansyl-Ala-Arg-Arg-NH2) | 11
C[C@H](NS(=O)(=O)c1cccc2c(N(C)C)cccc12)C(=O)N[C@@H](Cc1c[nH]c2ccccc12)C(=O)N[C@@H](CCCNC(=N)N)C(N)=O [Dansyl-AWR-amide] (Dansyl-Ala-Trp-Arg-NH2) | 21
C[C@H](NS(=O)(=O)c1cccc2c(N(C)C)cccc12)C(=O)N[C@@H](Cc1ccc(O)cc1)C(=O)N[C@@H](CCCNC(=N)N)C(N)=O [Dansyl-AYR-amide] (Dansyl-Ala-Tyr-Arg-NH2) | 11
CN(C)c1cccc2c(S(=O)(=O)N[C@@H](CC(=O)O)C(=O)N[C@@H](CC(=O)O)C(=O)N[C@@H](CCCNC(=N)N)C(N)=O)cccc12 [Dansyl-DDR-amide] (Dansyl-Asp-Asp-Arg-NH2) | −24
CN(C)c1cccc2c(S(=O)(=O)N[C@@H](CC(=O)O)C(=O)N[C@@H](CCC(=O)O)C(=O)N[C@@H](CCCNC(=N)N)C(N)=O)cccc12 [Dansyl-DER-amide] (Dansyl-Asp-Glu-Arg-NH2) | −5
CN(C)c1cccc2c(S(=O)(=O)N[C@@H](CC(=O)O)C(=O)N[C@@H](Cc3ccccc3)C(=O)N[C@@H](CCCNC(=N)N)C(N)=O)cccc12 [Dansyl-DFR-amide] (Dansyl-Asp-Phe-Arg-NH2) | −7
CN(C)c1cccc2c(S(=O)(=O)N[C@@H](CC(=O)O)C(=O)NCC(=O)N[C@@H](CCCNC(=N)N)C(N)=O)cccc12 [Dansyl-DGR-amide] (Dansyl-Asp-Gly-Arg-NH2) | 0
CN(C)c1cccc2c(S(=O)(=O)N[C@@H](CC(=O)O)C(=O)N[C@@H](Cc3c[nH]cn3)C(=O)N[C@@H](CCCNC(=N)N)C(N)=O)cccc12 [Dansyl-DHR-amide] (Dansyl-Asp-His-Arg-NH2) | −11
CC[C@H](C)[C@H](NC(=O)[C@H](CC(=O)O)NS(=O)(=O)c1cccc2c(N(C)C)cccc12)C(=O)N[C@@H](CCCNC(=N)N)C(N)=O [Dansyl-DIR-amide] (Dansyl-Asp-Ile-Arg-NH2) | 1
CN(C)c1cccc2c(S(=O)(=O)N[C@@H](CC(=O)O)C(=O)N[C@@H](CCCCN)C(=O)N[C@@H](CCCNC(=N)N)C(N)=O)cccc12 [Dansyl-DKR-amide] (Dansyl-Asp-Lys-Arg-NH2) | −8
CC(C)C[C@H](NC(=O)[C@H](CC(=O)O)NS(=O)(=O)c1cccc2c(N(C)C)cccc12)C(=O)N[C@@H](CCCNC(=N)N)C(N)=O [Dansyl-DLR-amide] (Dansyl-Asp-Leu-Arg-NH2) | −14
CSCC[C@H](NC(=O)[C@H](CC(=O)O)NS(=O)(=O)c1cccc2c(N(C)C)cccc12)C(=O)N[C@@H](CCCNC(=N)N)C(N)=O [Dansyl-DMR-amide] (Dansyl-Asp-Met-Arg-NH2) | −6
CN(C)c1cccc2c(S(=O)(=O)N[C@@H](CC(=O)O)C(=O)N[C@@H](CC(N)=O)C(=O)N[C@@H](CCCNC(=N)N)C(N)=O)cccc12 [Dansyl-DNR-amide] (Dansyl-Asp-Asn-Arg-NH2) | −4
CN(C)c1cccc2c(S(=O)(=O)N[C@@H](CC(=O)O)C(=O)N3CCC[C@H]3C(=O)N[C@@H](CCCNC(=N)N)C(N)=O)cccc12 [Dansyl-DPR-amide] (Dansyl-Asp-Pro-Arg-NH2) | −2
CN(C)c1cccc2c(S(=O)(=O)N[C@@H](CC(=O)O)C(=O)N[C@@H](CCC(N)=O)C(=O)N[C@@H](CCCNC(=N)N)C(N)=O)cccc12 [Dansyl-DQR-amide] (Dansyl-Asp-Gln-Arg-NH2) | 8
CN(C)c1cccc2c(S(=O)(=O)N[C@@H](CC(=O)O)C(=O)N[C@@H](CCCNC(=N)N)C(=O)N[C@@H](CCCNC(=N)N)C(N)=O)cccc12 [Dansyl-DRR-amide] (Dansyl-Asp-Arg-Arg-NH2) | −7
CN(C)c1cccc2c(S(=O)(=O)N[C@@H](CC(=O)O)C(=O)N[C@@H](CO)C(=O)N[C@@H](CCCNC(=N)N)C(N)=O)cccc12 [Dansyl-DSR-amide] (Dansyl-Asp-Ser-Arg-NH2) | 15

Now from value to molecule:

Relative Binding Index (RBI) [a.u.] | SMILES
−37 | C[C@H](NC(=O)[C@H](C)NS(=O)(=O)c1cccc2c(N(C)C)cccc12)C(=O)N[C@@H](CCCNC(=N)N)C(N)=O [Dansyl-AAR-amide] (Dansyl-Ala-Ala-Arg-NH2)
−6 | C[C@H](NS(=O)(=O)c1cccc2c(N(C)C)cccc12)C(=O)N[C@@H](CC(=O)O)C(=O)N[C@@H](CCCNC(=N)N)C(N)=O [Dansyl-ADR-amide] (Dansyl-Ala-Asp-Arg-NH2)
12 | C[C@H](NS(=O)(=O)c1cccc2c(N(C)C)cccc12)C(=O)N[C@@H](CCC(=O)O)C(=O)N[C@@H](CCCNC(=N)N)C(N)=O [Dansyl-AER-amide] (Dansyl-Ala-Glu-Arg-NH2)
18 | C[C@H](NS(=O)(=O)c1cccc2c(N(C)C)cccc12)C(=O)NCC(=O)N[C@@H](CCCNC(=N)N)C(N)=O [Dansyl-AGR-amide] (Dansyl-Ala-Gly-Arg-NH2)
19 | CC[C@H](C)[C@H](NC(=O)[C@H](C)NS(=O)(=O)c1cccc2c(N(C)C)cccc12)C(=O)N[C@@H](CCCNC(=N)N)C(N)=O [Dansyl-AIR-amide] (Dansyl-Ala-Ile-Arg-NH2)
4 | CC(C)CC(NC(=O)[C@H](C)NS(=O)(=O)c1cccc2c(N(C)C)cccc12)C(=O)N[C@@H](CCCNC(=N)N)C(N)=O (some centres unmarked) [Dansyl-ALR-amide] (Dansyl-Ala-[ξL]-Arg-NH2)
12 | CSCC[C@H](NC(=O)[C@H](C)NS(=O)(=O)c1cccc2c(N(C)C)cccc12)C(=O)N[C@@H](CCCNC(=N)N)C(N)=O [Dansyl-AMR-amide] (Dansyl-Ala-Met-Arg-NH2)
13 | C[C@H](NS(=O)(=O)c1cccc2c(N(C)C)cccc12)C(=O)N[C@@H](CC(N)=O)C(=O)N[C@@H](CCCNC(=N)N)C(N)=O [Dansyl-ANR-amide] (Dansyl-Ala-Asn-Arg-NH2)
26 | C[C@H](NS(=O)(=O)c1cccc2c(N(C)C)cccc12)C(=O)N[C@@H](CCC(N)=O)C(=O)N[C@@H](CCCNC(=N)N)C(N)=O [Dansyl-AQR-amide] (Dansyl-Ala-Gln-Arg-NH2)
33 | C[C@H](NS(=O)(=O)c1cccc2c(N(C)C)cccc12)C(=O)N[C@@H](CO)C(=O)N[C@@H](CCCNC(=N)N)C(N)=O [Dansyl-ASR-amide] (Dansyl-Ala-Ser-Arg-NH2)
18 | C[C@H](NS(=O)(=O)c1cccc2c(N(C)C)cccc12)C(=O)N[C@H](C(=O)N[C@@H](CCCNC(=N)N)C(N)=O)[C@@H](C)O [Dansyl-ATR-amide] (Dansyl-Ala-Thr-Arg-NH2)
7 | CC(C)[C@H](NC(=O)[C@H](C)NS(=O)(=O)c1cccc2c(N(C)C)cccc12)C(=O)N[C@@H](CCCNC(=N)N)C(N)=O [Dansyl-AVR-amide] (Dansyl-Ala-Val-Arg-NH2)
−55 | C[C@H](NC(=O)[C@H](CC(=O)O)NS(=O)(=O)c1cccc2c(N(C)C)cccc12)C(=O)N[C@@H](CCCNC(=N)N)C(N)=O [Dansyl-DAR-amide] (Dansyl-Asp-Ala-Arg-NH2)
0 | C[C@@H](O)[C@H](NC(=O)[C@H](CC(=O)O)NS(=O)(=O)c1cccc2c(N(C)C)cccc12)C(=O)N[C@@H](CCCNC(=N)N)C(N)=O [Dansyl-DTR-amide] (Dansyl-Asp-Thr-Arg-NH2)
